Tests used:
Assay in all cases: cells
QIMR-WIL = type: functional, cell-based; conditions: Homo sapiens;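 further: growth inhibition of QIMR-WIL cells, read out with a cell viability assay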
Description: SANGER: Inhibition of human QIMR-WIL cell growth in a cell viability assay.

G-401 = type: functional, cell-based, Homo sapiens; conditions: Homo sapiens, G-401
Description: SANGER: Inhibition of human G-401 cell growth in a cell viability assay.

HOS = type: functional, cell-based, Homo sapiens; conditions: Homo sapiens, HOS;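 further: growth inhibition of human HOS cells, read out with a cell viability assay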
Description: SANGER: Inhibition of human HOS cell growth in a cell viability assay.

SF-268 = type: functional, cell-based, Homo sapiens; conditions: Homo sapiens, SF-268;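 further: growth inhibition of SF-268 cells determined with a cell viability assay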
Description: SANGER: Inhibition of human SF268 cell growth in a cell viability assay.

LCLC-103H cell line = type: functional, cell-based, Homo sapiens; conditions: Homo sapiens, LCLC-103H
Description: SANGER: Inhibition of human LCLC-103H cell growth in a cell viability assay.

CAL-120 = type: functional, cell-based, Homo sapiens; conditions: Homo sapiens, CAL-120;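 further: cell growth inhibition, read out as cell viability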
Description: SANGER: Inhibition of human CAL-120 cell growth in a cell viability assay.

KLE = type: functional, cell-based, Homo sapiens; conditions: Homo sapiens, KLE;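 further: growth inhibition of human KLE cells, read out with a cell viability assay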
Description: SANGER: Inhibition of human KLE cell growth in a cell viability assay.

NCI-H1755 = type: functional, cell-based, Homo sapiens; conditions: Homo sapiens, NCI-H1755;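 further: cell viability readout used to measure growth inhibition of NCI-H1755 cells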
Description: SANGER: Inhibition of human NCI-H1755 cell growth in a cell viability assay.

ME-180 = type: functional, cell-based; conditions: Homo sapiens;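 further: cell viability assay measuring growth inhibition of ME-180 cells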
Description: SANGER: Inhibition of human ME-180 cell growth in a cell viability assay.

NCI-H1395 = type: functional, cell-based, Homo sapiens; conditions: Homo sapiens, NCI-H1395;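 further: cell viability assay read-out quantifying reduced proliferation of human NCI-H1395 cells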
Description: SANGER: Inhibition of human NCI-H1395 cell growth in a cell viability assay.

NCI-H2087 = type: functional, cell-based, Homo sapiens; conditions: Homo sapiens, NCI-H2087;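 further: growth inhibition determined with a cell viability readout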
Description: SANGER: Inhibition of human NCI-H2087 cell growth in a cell viability assay.

Huh-7 = type: functional, cell-based, Homo sapiens; conditions: Homo sapiens, Huh-7;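 further: HuH-7 cell growth inhibition, read out with a cell viability assay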
Description: SANGER: Inhibition of human HuH-7 cell growth in a cell viability assay.

COLO-668 = type: functional, cell-based, Homo sapiens; conditions: Homo sapiens, COLO-668
Description: SANGER: Inhibition of human COLO-668 cell growth in a cell viability assay.

SW948 = type: functional, cell-based, Homo sapiens; conditions: Homo sapiens, SW948;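 further: growth inhibition of SW948 cells, read out with a cell viability assay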
Description: SANGER: Inhibition of human SW948 cell growth in a cell viability assay.

KYSE-270 = type: functional, cell-based, Homo sapiens; conditions: Homo sapiens, KYSE-270;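 further: cell growth inhibition measured with a viability assay in the human KYSE-270 line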
Description: SANGER: Inhibition of human KYSE-270 cell growth in a cell viability assay.

KYSE-150 cell line = type: functional, cell-based, Homo sapiens; conditions: Homo sapiens, KYSE-150;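 further: growth inhibition of human KYSE-150 cells, read out with a cell viability assay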
Description: SANGER: Inhibition of human KYSE-150 cell growth in a cell viability assay.

LU-134-A = type: functional, cell-based; conditions: Homo sapiens
Description: SANGER: Inhibition of human LU-134-A cell growth in a cell viability assay.

IST-MEL1 = type: functional, cell-based, Homo sapiens; conditions: Homo sapiens, IST-MEL1;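 further: growth inhibition of the cell line, read out with a cell viability assay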
Description: SANGER: Inhibition of human IST-MEL1 cell growth in a cell viability assay.

HCC1419 = type: functional, cell-based, Homo sapiens; conditions: Homo sapiens, HCC1419;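 further: growth inhibition of human HCC1419 cells, read out as cell viability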
Description: SANGER: Inhibition of human HCC1419 cell growth in a cell viability assay.

NCI-H2126 = type: functional, cell-based, Homo sapiens; conditions: Homo sapiens, NCI-H2126;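 further: growth inhibition of the cancer cell line, determined with a cell viability readout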
Description: SANGER: Inhibition of human NCI-H2126 cell growth in a cell viability assay.

SW1573 = type: functional, cell-based, Homo sapiens; conditions: Homo sapiens, SW1573;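 further: growth inhibition of SW1573 cells, read out with a cell viability assay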
Description: SANGER: Inhibition of human SW1573 cell growth in a cell viability assay.

NCI-H2452 = type: functional, cell-based, Homo sapiens; conditions: Homo sapiens, NCI-H2452;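 further: growth inhibition of NCI-H2452 cells, read out with a cell viability assay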
Description: SANGER: Inhibition of human NCI-H2452 cell growth in a cell viability assay.

Ramos-2G6-4C10 = type: functional, cell-based; conditions: Homo sapiens;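 further: growth inhibition of the cell line, measured by a cell viability read-out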
Description: SANGER: Inhibition of human Ramos-2G6-4C10 cell growth in a cell viability assay.

RH-1 = type: functional, cell-based, Homo sapiens; conditions: Homo sapiens, RH-1;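 further: growth inhibition of human RH-1 cells, read out with a cell viability assay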
Description: SANGER: Inhibition of human RH-1 cell growth in a cell viability assay.

MC-IXC = type: functional, cell-based, Homo sapiens; conditions: Homo sapiens, MC-IXC;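 further: growth inhibition of MC-IXC cells, read out with a cell viability assay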
Description: SANGER: Inhibition of human MC-IXC cell growth in a cell viability assay.

NCI-H1092 = type: functional, cell-based; conditions: Homo sapiens;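 further: cell growth inhibition measured with a cell viability assay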
Description: SANGER: Inhibition of human NCI-H1092 cell growth in a cell viability assay.

LS-513 = type: functional, cell-based, Homo sapiens; conditions: Homo sapiens, LS-513
Description: SANGER: Inhibition of human LS-513 cell growth in a cell viability assay.

COR-L23 = type: functional, cell-based, Homo sapiens; conditions: Homo sapiens, COR-L23;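 further: cell viability assay measuring how strongly compounds suppress growth of COR-L23 cells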
Description: SANGER: Inhibition of human COR-L23 cell growth in a cell viability assay.

EFO-21 = type: functional, cell-based, Homo sapiens; conditions: Homo sapiens, EFO-21;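 further: growth inhibition of EFO-21 cells measured with a viability assay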
Description: SANGER: Inhibition of human EFO-21 cell growth in a cell viability assay.

U-87 MG = type: functional, cell-based, U-87MG ATCC; conditions: Homo sapiens;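 further: growth inhibition of the cells measured with a viability assay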
Description: SANGER: Inhibition of human U-87-MG cell growth in a cell viability assay.

SW1783 = type: functional, cell-based; conditions: Homo sapiens;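 further: cell growth inhibition measured with a viability assay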
Description: SANGER: Inhibition of human SW1783 cell growth in a cell viability assay.

SW1417 = type: functional, cell-based, Homo sapiens; conditions: Homo sapiens, SW1417;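 further: growth inhibition of human SW1417 cells, read out with a cell viability assay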
Description: SANGER: Inhibition of human SW1417 cell growth in a cell viability assay.

CAL-51 = type: functional, cell-based, Homo sapiens; conditions: Homo sapiens, CAL-51;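 further: human CAL-51 cell line, growth inhibition read out via a cell viability assay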
Description: SANGER: Inhibition of human CAL-51 cell growth in a cell viability assay.

A388 = type: functional, cell-based, Homo sapiens; conditions: Homo sapiens, A388;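 further: growth inhibition of human A388 cells, read out with a cell viability assay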
Description: SANGER: Inhibition of human A388 cell growth in a cell viability assay.

MG-63 = type: functional, cell-based, Homo sapiens; conditions: Homo sapiens, MG-63;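 further: growth inhibition of human MG-63 cells, read out with a cell viability assay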
Description: SANGER: Inhibition of human MG-63 cell growth in a cell viability assay.

SK-MEL-30 = type: functional, cell-based; conditions: Homo sapiens;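 further: growth inhibition of SK-MEL-30 cells, determined with a cell viability assay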
Description: SANGER: Inhibition of human SK-MEL-30 cell growth in a cell viability assay.

SW684 = type: functional, cell-based, Homo sapiens; conditions: Homo sapiens, SW684;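 further: growth inhibition of human SW684 cells, measured by a cell viability assay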
Description: SANGER: Inhibition of human SW684 cell growth in a cell viability assay.

NCI-H747 = type: functional, cell-based; conditions: Homo sapiens;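 further: growth inhibition of human NCI-H747 cells, read out by a cell viability assay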
Description: SANGER: Inhibition of human NCI-H747 cell growth in a cell viability assay.

COLO-741 = type: functional, cell-based, Homo sapiens; conditions: Homo sapiens, COLO-741
Description: SANGER: Inhibition of human COLO-741 cell growth in a cell viability assay.

P30-OHK = type: functional, cell-based; conditions: Homo sapiens;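 further: growth inhibition of the P30-OHK cell line, read out with a cell viability assay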
Description: SANGER: Inhibition of human P30-OHK cell growth in a cell viability assay.

NCI-H1793 = type: functional, cell-based, Homo sapiens; conditions: Homo sapiens, NCI-H1793;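 further: cell growth inhibition, read out by a cell viability assay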
Description: SANGER: Inhibition of human NCI-H1793 cell growth in a cell viability assay.

ES4 = type: functional, cell-based, Homo sapiens; conditions: Homo sapiens, ES4;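 further: growth inhibition of human ES4 cells, read out by a cell viability assay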
Description: SANGER: Inhibition of human ES4 cell growth in a cell viability assay.

GCT = type: functional, cell-based, Homo sapiens; conditions: Homo sapiens, GCT;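 further: GCT cell line proliferation inhibition, read out with a cell viability assay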
Description: SANGER: Inhibition of human GCT cell growth in a cell viability assay.

C8166 = type: functional, cell-based; conditions: Homo sapiens;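 further: growth inhibition of human C8166 cells measured by a cell viability assay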
Description: SANGER: Inhibition of human C8166 cell growth in a cell viability assay.

A-375 = type: functional, cell-based, Homo sapiens; conditions: Homo sapiens, A-375;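 further: growth inhibition of A375 cells, read out with a cell viability assay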
Description: SANGER: Inhibition of human A375 cell growth in a cell viability assay.

OVCAR-5 = type: functional, cell-based, Homo sapiens; conditions: Homo sapiens, OVCAR-5;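 further: growth inhibition of human OVCAR-5 cells, read out with a cell viability assay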
Description: SANGER: Inhibition of human OVCAR-5 cell growth in a cell viability assay.

T-24 = type: functional, cell-based, Homo sapiens; conditions: Homo sapiens, T-24;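 further: growth inhibition of T-24 cells, read out with a cell viability assay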
Description: SANGER: Inhibition of human T-24 cell growth in a cell viability assay.

639-V = type: functional, cell-based, Homo sapiens; conditions: Homo sapiens, 639-V;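 further: growth inhibition of 639-V cells, read out with a cell viability assay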
Description: SANGER: Inhibition of human 639-V cell growth in a cell viability assay.

IGR-1 = type: functional, cell-based, Homo sapiens; conditions: Homo sapiens, IGR-1;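 further: growth inhibition of human IGR-1 cells, read out with a cell viability assay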
Description: SANGER: Inhibition of human IGR-1 cell growth in a cell viability assay.

PA-1 = type: functional, cell-based, Homo sapiens; conditions: Homo sapiens, PA-1;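 further: IC50 for suppression of PA-1 cell proliferation, determined with a cell viability read-out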
Description: SANGER: Inhibition of human PA-1 cell growth in a cell viability assay.

SK-NEP-1 = type: functional, cell-based; conditions: Homo sapiens;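 further: growth inhibition of human SK-NEP-1 cells, read out by a cell viability assay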
Description: SANGER: Inhibition of human SK-NEP-1 cell growth in a cell viability assay.

CC(=O)O[C@@H]1[C@@H](OC(C)=O)[C@@H](O)[C@H](Oc2c(-c3ccc(O)cc3)oc3cc(O)cc(O)c3c2=O)O[C@H]1C
IC50 (QIMR-WIL): > 10 µM | IC50 (G-401): > 10 µM | IC50 (HOS): > 10 µM | IC50 (SF-268): > 10 µM | IC50 (LCLC-103H cell line): > 10 µM | IC50 (CAL-120): > 10 µM | IC50 (KLE): > 10 µM | IC50 (NCI-H1755): > 10 µM | IC50 (ME-180): > 10 µM | IC50 (NCI-H1395): > 10 µM | IC50 (NCI-H2087): > 10 µM | IC50 (Huh-7): > 10 µM | IC50 (COLO-668): > 10 µM | IC50 (SW948): > 10 µM | IC50 (KYSE-270): > 10 µM | IC50 (KYSE-150 cell line): > 10 µM | IC50 (LU-134-A): > 10 µM | IC50 (IST-MEL1): > 10 µM | IC50 (HCC1419): > 10 µM | IC50 (NCI-H2126): > 10 µM | IC50 (SW1573): > 10 µM | IC50 (NCI-H2452): > 10 µM | IC50 (Ramos-2G6-4C10): > 10 µM | IC50 (RH-1): > 10 µM | IC50 (MC-IXC): > 10 µM | IC50 (NCI-H1092): > 10 µM | IC50 (LS-513): > 10 µM | IC50 (COR-L23): > 10 µM | IC50 (EFO-21): > 10 µM | IC50 (U-87 MG): > 10 µM | IC50 (SW1783): > 10 µM | IC50 (SW1417): > 10 µM | IC50 (CAL-51): > 10 µM | IC50 (A388): > 10 µM | IC50 (MG-63): > 10 µM | IC50 (SK-MEL-30): > 10 µM | IC50 (SW684): > 10 µM | IC50 (NCI-H747): > 10 µM | IC50 (COLO-741): > 10 µM | IC50 (P30-OHK): > 10 µM | IC50 (NCI-H1793): > 10 µM | IC50 (ES4): > 10 µM | IC50 (GCT): > 10 µM | IC50 (C8166): > 10 µM | IC50 (A-375): > 10 µM | IC50 (OVCAR-5): > 10 µM | IC50 (T-24): > 10 µM | IC50 (639-V): > 10 µM | IC50 (IGR-1): > 10 µM | IC50 (PA-1): > 10 µM | IC50 (SK-NEP-1): > 10 µM

COc1cc(F)c(F)c(Nc2ccc(I)cc2F)c1NS(=O)(=O)C1(CC(O)CO)CC1 (configuration not stated)
IC50 (QIMR-WIL): > 5 µM | IC50 (G-401): 1.97 µM | IC50 (HOS): > 5 µM | IC50 (SF-268): > 5 µM | IC50 (LCLC-103H cell line): > 5 µM | IC50 (CAL-120): > 5 µM | IC50 (KLE): > 5 µM | IC50 (NCI-H1755): > 5 µM | IC50 (ME-180): 1.75 µM | IC50 (NCI-H1395): > 5 µM | IC50 (NCI-H2087): 2.42 µM | IC50 (Huh-7): 1.47 µM | IC50 (COLO-668): > 5 µM | IC50 (SW948): > 5 µM | IC50 (KYSE-270): > 5 µM | IC50 (KYSE-150 cell line): 3.4 µM | IC50 (LU-134-A): > 5 µM | IC50 (IST-MEL1): 1.89 µM | IC50 (HCC1419): > 5 µM | IC50 (NCI-H2126): > 5 µM | IC50 (SW1573): > 5 µM | IC50 (NCI-H2452): > 5 µM | IC50 (Ramos-2G6-4C10): > 5 µM | IC50 (RH-1): > 5 µM | IC50 (MC-IXC): > 5 µM | IC50 (NCI-H1092): > 5 µM | IC50 (LS-513): 0.414 µM | IC50 (COR-L23): 2.78 µM | IC50 (EFO-21): > 5 µM | IC50 (U-87 MG): > 5 µM | IC50 (SW1783): > 5 µM | IC50 (SW1417): > 5 µM | IC50 (CAL-51): > 5 µM | IC50 (A388): > 5 µM | IC50 (MG-63): 2.82 µM | IC50 (SK-MEL-30): > 5 µM | IC50 (SW684): > 5 µM | IC50 (NCI-H747): 0.657 µM | IC50 (COLO-741): 0.915 µM | IC50 (P30-OHK): > 5 µM | IC50 (NCI-H1793): > 5 µM | IC50 (ES4): > 5 µM | IC50 (GCT): > 5 µM | IC50 (C8166): > 5 µM | IC50 (A-375): 0.12 µM | IC50 (OVCAR-5): 0.234 µM | IC50 (T-24): > 5 µM | IC50 (639-V): > 5 µM | IC50 (IGR-1): > 5 µM | IC50 (PA-1): > 5 µM | IC50 (SK-NEP-1): > 5 µM

— ChEMBL document CHEMBL1201861, “Genomics of Drug Sensitity in Cancer screening data, Wellcome Trust Sanger Institute”
